Assay results from patent US20230330125A1, “ORAL COMPOSITION COMPRISING S-ADENOSYL METHIONINE AND A PROBIOTIC AND ITS USE FOR TREATING AND/OR PREVENTING MOOD DISORDERS” (Montefarmaco OTC S.p.A., priority 2020, published 2023).

Tests used:
[1] = cited from earlier work
[2] = test system: R0175 probiotic strain; assay: Microbiological test, CFU count in Petri dish with SAMe; type: cell-based, Bifidobacterium longum; conditions: SAMe marketed formulation 500 mg dose, vs probiotic strain only
Protocol: (§1) 1.2 MICROBIOLOGICAL TEST: within the bio-compatibility study a microbiological evaluation was carried out. R0052 and R0175 probiotic strains were cultured in a Petri dish, in the presence of the active (SAMe, marketed formulation) at a 500 mg dose (as above). A sample was also analyzed as a reference of probiotic strain only, so that it could be compared with the addition of the active on the result in Colony-Forming Units (CFU). […] This is easily justified by the simple analytical error, known in the microbiological field.

[3] = test system: Lactobacillus helveticus R0052; assay: Liquid compatibility method (pH monitoring of strain growth with SAMe); type: cell-based
Protocol: The study was carried out in a first phase with SAMe+Lactobacillus helveticus R0052, not microencapsulated, through a liquid compatibility method. The initial population tested was 15.10^E9 CFU/g units at 500 mg of SAMe. For this evaluation a pHmeter with 8 probes was used, and values were verified every 15 minutes.
The strains are inoculated into a liquid medium suitable for their growth, only under […] conditions (reason why in this way the Bifidobacterium is not tested), and the active substance is inoculated into the sample and not into the control.
From an operational point of view: the vial is filled with the liquid medium (50 ml RCM); the active, which should have been tested directly in its granulated form in the vial, is added, and it is mixed. Then the pH of the medium in the presence of the active is verified, if necessary, the pH is adjusted so that it is comprised between 6.5 and 7. R0052 strain is therefore inoculated (batch U12171600, 500.10^E9 CFU/g) into the vial. The sample is diluted 1/100 with Dilumat to obtain a dilution to 5.10^E9 CFU/ml and finally it is inoculated with 3 ml into the 50 ml RCM vial, obtaining […]. The vial is placed in warm bath, at 37°, and the pH started to be recorded for 18 hours.

[4] = test system: R0052 probiotic strain; assay: Microbiological test, CFU count in Petri dish with SAMe; type: cell-based, Lactobacillus helveticus; conditions: SAMe marketed formulation 500 mg dose, vs probiotic strain only
Protocol: as §1

SMILES: C[S+](CC[C@H](N)C(=O)O)C[C@H]1O[C@@H](n2cnc3c(N)ncnc32)[C@H](O)[C@@H]1O (some centres unmarked) [SAMe, S-adenosyl methionine]
- Plasma levels of the unmodified molecule ([1]; oral intake): 5-10 % of the administered dose
- Plasma bioavailability ([1]; parenteral (intravenous or intramuscular) route): 90-100 % of the administered dose
- Modification of CFU count [2]: up to 5%
- pH of medium, R0052 in contact with SAMe, final ([3]; 500 mg SAMe, RCM medium, 37°, after pH decrease over 18 hours recording): 4.2
- pH of medium, R0052 in contact with SAMe, initial ([3]; 500 mg SAMe, RCM medium, 37°, start of 18 hours recording): 7.2
- Compatibility of L. helveticus R0052 strain with SAMe ([3]; conclusion from acidification): compatible
- pH of the active (SAMe) alone ([3]; without strain, RCM medium, 37°, remains essentially unchanged): 7-7.5
- Modification of CFU count [4]: up to 5%
